Laboratory results as given in article PMC11729640, “Synthesis and evaluation of 6-arylaminobenzamides as positron emission tomography imaging ligands for the sphingosine-1-phosphate-5 receptor” (RSC Medicinal Chemistry, 2025).

What was measured:
[1] = Stability of radiotracer by radio-HPLC and radio-TLC; type: physicochemical
Description: On identification of TEFM78 as the lead compound, a synthetic route to access a suitable precursor for late stage radiofluorination was developed (Scheme 3). Our approach focused on the synthesis of a 6-arylaminobenzamide that could undergo late-stage functionalisation at the 4′-position for subsequent radiofluorination. Nucleophilic aromatic substitution of 9b with 2,6-dimethylaniline (18), followed by Ullmann coupling and amidation gave benzamide 21 in 81% yield over the three steps. Activation of the electron-rich aniline ring was achieved using silver(I) triflimide-catalysed iodination.[17] Following optimisation (solvent and reaction time), this gave 22 in 54% yield. Subsequent Pd(0)-catalysed stannylation gave trimethyltin precursor 23 in 84% yield. The radiosynthesis of [^18F]TEFM78 was then performed using a TRACERlab FXFN automated synthesiser. No-carrier-added [^18F]fluoride from the cyclotron was trapped on a carbonate-pre-conditioned quaternary methyl ammonium (QMA) cartridge, eluted into the reaction vessel and then azeotropically dried. […]
Analytical HPLC was carried out on a Thermo Dionex Ulimate system 3000 equipped with a Berthold FlowStar LB 513 radio flow detector and a DAD-3000 UV detector. […] The nonradioactive standards were detected using a UV wavelength of 254 nm.

rat brain = assay: Pilot PET in vivo imaging in naïve rats; set-up: species or system Sprague–Dawley rats; settings: intravenous bolus, n = 3
Description: Following successful preparation of [^18F]TEFM78, PET imaging with rodents was next conducted. On intravenous bolus administration of [^18F]TEFM78, there was rapid uptake of the radiotracer into the rat brain (Fig. 3a), followed by clearance within 20 minutes of the scan starting (Fig. 3b). […] The biodistribution and kinetics of the spinal cord were different from the brain with a lower peak radiotracer uptake but slower clearance (Fig. 3b). […] Typically, low free fraction of compounds can limit brain penetration. However, as shown in the PET images presented in Fig. 3, despite low free fraction, brain penetration of [^18F]TEFM78 is successfully achieved. […]
Fig. 3 Brain and spinal cord kinetics of [^18F]TEFM78 in naïve rats. […] Data expressed as SUV and presented as mean ± SEM, n = 3.
All animal procedures were performed in accordance with the guidelines for care and use of laboratory animals of Edinburgh University and experiments were approved by the Home Office under the Animals (Scientific Procedures) Act 1986, UK. […] Once the PET scans were reconstructed, data was analysed using PMOD image analysis software (PMOD Technologies LLC, Zürich, Switzerland). […] Time activity curves (TACs) were created for each region and PET data expressed as standard uptake value (SUV), calculated as radioactive concentration in the VOI divided by the injected dose and animal's weight.

COc1c(C)ccc(Nc2c(C)cc([18F])cc2C)c1C(N)=O [[^18F]TEFM78]
radiochemical purity (RCP) ten hours after production (stability) [1]: > 99% | peak standard uptake value (SUV) in the brain (rat brain): 3 g/mL
